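Dose response: 5 concentrations. Exposure: 48 h. Format: 96-well plates. Endpoint: linear interpolation; highest concentration if not reached. GI50: concentration for 50% inhibition of growth.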 The source made the active and inactive calls. No stated cut-off is given here; in the data, active = GI50 up to about 1.1 µM and inactive = higher. A value given as a limit tells only on which side of the number the result lay.

The results in this text go back to ChEMBL document CHEMBL1201862, “PubChem BioAssay data set” (2004).

Among the test systems are A498; DLD-1; DMS-114; DMS-273; EKVX; KM-20L2; MCF7; NCI-H226; NCI/ADR-RES; SF-268; SNB-78; ACHN; BT-549; DU-145; Hs-578T; M14; MDA-MB-435; MDA-N; PC-3; T47D.
What all share (assay): NCI-60 cell line screen, 48 h

For the compound `Cc1c2cnccc2c(C)c2c1c1ccccc1n2CCCCCCNCc1ccccc1`, the GI50 is 2.11 µM (inactive) with A498; 0.879 µM (active) in the assay with DLD-1; 1.83 µM (inactive) in the assay with DMS-114; 1.21 µM (inactive) with DMS-273; 2.11 µM (inactive) with EKVX; 1.49 µM (inactive) in the assay on KM-20L2. For the same compound, the GI50 in the assay on MCF7 was 1.45 µM (inactive); in the assay on NCI-H226 it was 1.55 µM (inactive); with NCI/ADR-RES, 0.74 µM (active); with SF-268, 1.41 µM (inactive); with SNB-78, 1.96 µM (inactive).

As to `COC(OC)C1OC(CO)C(n2cc(F)c(=O)[nH]c2=O)C1O` (stereo unspecified), the GI50 is > 100 µM (inactive) in the assay with A498; > 100 µM (inactive) in the assay with ACHN; > 100 µM (inactive) in the assay on BT-549; 21.4 µM (inactive) in the assay on DU-145; > 100 µM (inactive) in the assay with EKVX; > 100 µM (inactive) in the assay with Hs-578T. In addition, the GI50 in the assay with M14, in the assay on MCF7, with MDA-MB-435, with MDA-N, in the assay on NCI-H226 and in the assay on NCI/ADR-RES was > 100 µM (inactive) each time. The GI50 in the assay with PC-3 was > 100 µM (inactive); with SF-268 it was > 100 µM (inactive); with T47D it was 25.4 µM (inactive).

For the compound `CC(C)OP(=O)(OC(C)C)/C(I)=N/Nc1ccc([N+](=O)[O-])cc1`, the GI50 in the assay with A498, in the assay with ACHN, in the assay with DLD-1, in the assay on DMS-114, in the assay on DMS-273 and in the assay with EKVX was > 100 µM (inactive) throughout. The GI50 in the assay with KM-20L2, in the assay on M14, with SF-268 and in the assay on SNB-78 was > 100 µM (inactive) throughout.

On to `C=C(C(=O)C(=O)Oc1ccc(Cl)cc1)C(=O)c1ccc(C)cc1`, for which the GI50 in the assay on A498 was > 100 µM (inactive); in the assay with ACHN, 91.4 µM (inactive); in the assay on DLD-1, 28.4 µM (inactive); in the assay on DMS-114, 30.9 µM (inactive); in the assay with DMS-273 it was 39.2 µM (inactive); in the assay on EKVX, > 100 µM (inactive). In addition, the GI50 in the assay on KM-20L2 is 59.7 µM (inactive); in the assay on M14, 28.3 µM (inactive); in the assay on NCI-H226, > 100 µM (inactive); with SF-268 it was 46.8 µM (inactive); in the assay with SNB-78 it was 65 µM (inactive).

As for `COc1ccc2c(c1)CC1Cc3ccccc3CCN1C2` (stereo unspecified), the GI50 is 64 µM (inactive) with ACHN; > 100 µM (inactive) with BT-549; 61.2 µM (inactive) with DU-145; 59 µM (inactive) in the assay with EKVX; 41.2 µM (inactive) in the assay on Hs-578T; 23.6 µM (inactive) in the assay on M14. Besides, the GI50 in the assay with MCF7 is 74.5 µM (inactive); in the assay with MDA-MB-435, 34.2 µM (inactive); in the assay on MDA-N, 47.9 µM (inactive); in the assay with NCI-H226, 89.1 µM (inactive); in the assay on NCI/ADR-RES it was 52 µM (inactive); in the assay on PC-3 it was 25.9 µM (inactive). The GI50 in the assay on SF-268 was > 100 µM (inactive); with T47D, 35.2 µM (inactive).

As to `NC1(C(=O)O)CCCC1` [CYCLOLEUCINE], the GI50 was > 625 µM (inactive) in the assay with DLD-1; > 625 µM (inactive) in the assay on DMS-114; > 625 µM (inactive) in the assay with DMS-273; > 578 µM (inactive) in the assay on EKVX; > 625 µM (inactive) in the assay on KM-20L2; > 625 µM (inactive) with MCF7. Besides, the GI50 is > 625 µM (inactive) in the assay on NCI-H226, > 625 µM (inactive) in the assay with NCI/ADR-RES, > 177 µM (inactive) in the assay with SF-268 and > 244 µM (inactive) in the assay with SNB-78.

On to `COc1nc2ccc(CNc3ccc(C(=O)NC(CCC(=O)O)C(=O)O)cc3)cc2nc1OC` (stereo unspecified), for which the GI50 with A498, with ACHN, with BT-549, in the assay with DU-145, in the assay on EKVX and in the assay on Hs-578T was > 100 µM (inactive) in each case. Further, the GI50 in the assay with M14, with MCF7, with MDA-MB-435, in the assay on MDA-N, with NCI-H226 and with NCI/ADR-RES was > 100 µM (inactive) in each case. Also, the GI50 in the assay with PC-3 was 44.6 µM (inactive); with SF-268 it was > 100 µM (inactive); in the assay with T47D, > 100 µM (inactive).

For the compound `c1ccc(/N=C2\SC3=NCCN3\C2=N/c2ccccc2)cc1`, the GI50 is 19.8 µM (inactive) in the assay on A498; 15.2 µM (inactive) with BT-549; 13.2 µM (inactive) in the assay on DU-145; 36.9 µM (inactive) with Hs-578T; 17.5 µM (inactive) in the assay with M14; 10.7 µM (inactive) in the assay on MCF7. The GI50 in the assay on MDA-MB-435 was 15.6 µM (inactive); with MDA-N, 15.7 µM (inactive); with NCI-H226, 20.6 µM (inactive); in the assay with NCI/ADR-RES it was 28 µM (inactive); in the assay with PC-3, 13.1 µM (inactive); with T47D it was 9.12 µM (inactive).

`COP(=O)(OC)/C(=C/c1cn(C(C)=O)c2ccccc12)NC(C)=O`: the GI50 with A498 is 16.6 µM (inactive); in the assay with ACHN it was 53 µM (inactive); in the assay with DU-145, > 100 µM (inactive); with Hs-578T, 35.4 µM (inactive); in the assay on M14, 41.8 µM (inactive); in the assay on MCF7, 8.91 µM (inactive). In addition, the GI50 in the assay on MDA-MB-435 was 4.62 µM (inactive); in the assay on MDA-N it was 13.8 µM (inactive); in the assay with NCI/ADR-RES, 28.8 µM (inactive); in the assay on PC-3 it was 22.4 µM (inactive); in the assay on T47D it was 38.5 µM (inactive).

As for `c1ccc2cc3n[se]nc3cc2c1`, the GI50 was > 100 µM (inactive) with ACHN; 62.4 µM (inactive) with DLD-1; > 100 µM (inactive) in the assay on DMS-114; > 100 µM (inactive) in the assay on DMS-273; > 100 µM (inactive) with EKVX; > 100 µM (inactive) in the assay with KM-20L2. Besides, the GI50 in the assay on M14, with SF-268 and in the assay on SNB-78 was > 100 µM (inactive) each time.

Turning to `Nc1n[nH]c2nc3ccccc3nc12` [QUINOXALINE1], the GI50 in the assay on A498 was 33.7 µM (inactive); with ACHN, 36 µM (inactive); in the assay with BT-549 it was 64.6 µM (inactive); in the assay with DU-145 it was 63.5 µM (inactive); with EKVX it was 73.3 µM (inactive); with Hs-578T, 39 µM (inactive). Also, the GI50 with MCF7 is 61.2 µM (inactive); in the assay with MDA-MB-435 it was > 100 µM (inactive); with MDA-N, > 100 µM (inactive); with NCI-H226, 91.8 µM (inactive); in the assay on NCI/ADR-RES, > 100 µM (inactive); in the assay with PC-3, > 100 µM (inactive). The GI50 with SF-268 is 66.4 µM (inactive).

As to `Cc1ccc(S(N)(C(=O)Nc2cccc3ccccc23)[N+](=O)[O-])cc1` (stereo unspecified), the GI50 in the assay with A498 is > 100 µM (inactive); with BT-549, > 100 µM (inactive); with DU-145, 68.2 µM (inactive); in the assay on Hs-578T it was > 100 µM (inactive); with M14, > 100 µM (inactive); in the assay on MCF7, 59.2 µM (inactive). The GI50 in the assay with MDA-MB-435 was > 100 µM (inactive); in the assay with MDA-N, > 100 µM (inactive); in the assay on NCI-H226, > 100 µM (inactive); with NCI/ADR-RES it was > 100 µM (inactive); in the assay with PC-3, 50.4 µM (inactive); in the assay on T47D, 46.2 µM (inactive).

As to `COc1cc2c(cc1OC)-c1cc3ccccc3c(=O)n1CC2`, the GI50 in the assay on ACHN is 37.5 µM (inactive); in the assay on BT-549, 29.2 µM (inactive); in the assay with DU-145, 25.6 µM (inactive); in the assay with EKVX, 24.6 µM (inactive); with Hs-578T it was 11.4 µM (inactive); in the assay with M14, 31.2 µM (inactive). In addition, the GI50 with MCF7 is 28.3 µM (inactive); in the assay on MDA-MB-435, 22.8 µM (inactive); with MDA-N, 28.2 µM (inactive); in the assay on NCI-H226, 26.8 µM (inactive); with NCI/ADR-RES it was 25.2 µM (inactive); in the assay on PC-3, 2.68 µM (inactive). The GI50 in the assay with SF-268 is 24.9 µM (inactive); in the assay on T47D it was 21.8 µM (inactive).

For `O=C(O)c1cc2sc(C(=O)O)cc2s1`, the GI50 in the assay on A498, in the assay with DLD-1, in the assay with DMS-114, in the assay with DMS-273, in the assay with KM-20L2 and in the assay on M14 was > 100 µM (inactive) each time. Besides, the GI50 in the assay on NCI-H226, in the assay with SF-268 and in the assay with SNB-78 was > 100 µM (inactive) each time.
